Where a name gives a salt, the structure may show the parent alone.
The compounds below were run against T1, human ASK1 (Homo sapiens, UniProt Q99683) (assay: Scintillation assay measuring inhibition of ASK1 phosphorylation of myelin basic protein). Settings: active ASK1 protein 30 ng, myelin basic protein 1 μg, [γ-32P]ATP, room temperature 30 min; values given as ranges; read-out: Enzyme Activity IC50.
T1 construct: a 2.2 kb DNA fragment containing an ASK1 gene was recovered from the gel; made in house; host or cells: Sf-21 insect cells, recombinant baculovirus (pFASTBAC1, Bac-to-Bac)
T1 sequence (Q99683 649-1374 limits assumed): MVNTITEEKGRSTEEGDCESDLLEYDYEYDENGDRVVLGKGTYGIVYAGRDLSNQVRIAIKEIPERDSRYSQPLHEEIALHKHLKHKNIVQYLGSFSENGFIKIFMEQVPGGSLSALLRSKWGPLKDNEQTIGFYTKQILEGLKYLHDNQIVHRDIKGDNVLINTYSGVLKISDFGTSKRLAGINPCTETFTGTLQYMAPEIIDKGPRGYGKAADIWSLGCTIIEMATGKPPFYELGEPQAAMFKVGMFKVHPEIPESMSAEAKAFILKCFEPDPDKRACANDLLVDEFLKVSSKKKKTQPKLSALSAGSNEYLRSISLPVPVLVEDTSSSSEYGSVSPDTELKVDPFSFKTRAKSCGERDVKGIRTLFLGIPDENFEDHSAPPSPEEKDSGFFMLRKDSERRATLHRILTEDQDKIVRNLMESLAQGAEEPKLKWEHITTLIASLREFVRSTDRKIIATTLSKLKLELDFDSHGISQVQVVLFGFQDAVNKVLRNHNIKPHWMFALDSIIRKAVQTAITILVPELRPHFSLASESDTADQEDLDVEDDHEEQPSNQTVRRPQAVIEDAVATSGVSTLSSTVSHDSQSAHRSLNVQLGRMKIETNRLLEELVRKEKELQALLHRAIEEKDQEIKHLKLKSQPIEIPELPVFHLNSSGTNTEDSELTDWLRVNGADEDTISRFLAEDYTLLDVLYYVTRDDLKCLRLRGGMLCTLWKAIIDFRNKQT
Type: biochemical
Procedure: Cloning of cDNA encoding human ASK1 was conducted by PCR using primers, 5′-[…] AGAGAAGGGGA-3′ (SEQ ID NO: 1) and 5′-[…]-3′ (SEQ ID NO: 2), from human heart cDNA library (Becton, Dickinson and Company). The PCR product was subjected to agarose gel (1%) electrophoresis, a 2.2 kb DNA fragment containing an ASK1 gene was recovered from the gel, and then digested with restriction enzymes, NotI and SalI, and inserted into a plasmid pFASTBAC1 (Invitrogen) to prepare a plasmid pFB-ASK1. The insert was verified by sequencing. Recombinant baculovirus was prepared according to the procedure of the Bac-to-Bac baculovirus expression system (Invitrogen).
Sf-21 cells were seeded to achieve 1×10^6 cells/mL in 100 mL of Sf-900 II SFM medium (Invitrogen) which contains 10% fetal calf serum and then cultured at 27° C. for 24 hrs. To express ASK1 in cells, 0.15 mL of the recombinant baculovirus virus stock was added to cells, and the then cultured for 60 hrs. The cells were separated from the culture solution by centrifugation at 3000 rpm for 10 min and washed once with PBS. The cells were suspended in 10 mL of lysis buffer (25 mM HEPES (pH 7.5), 1% Triton X, 130 mM NaCl, 1 mM EDTA, 1 mM DTT, 25 mM β-glycerophosphate, Protease inhibitor complete (Roche), 1 mM sodium orthovanadate) and ruptured by four times of treatment with a homogenizer (POLYTRON) at 20000 rpm for 30 seconds. Active ASK1 protein was purified from a supernatant obtained by centrifugal separation at 40000 rpm for 45 min using anti-FLAG M2 Affinity Gel (Sigma).
The test compounds (2.5 μl) dissolved in DMSO were added to wells containing 37.5 μl of the reaction solution (25 mM HEPES (pH 7.5), 10 mM magnesium acetate, 1 mM DTT) including 30 ng of active ASK1 protein and 1 μg of myelin basic protein (Wako), and incubated at room temperature for 5 min. To start the reaction, 10 μL of ATP solution (2.5 μM ATP, 0.1 μCi [γ-^32P]ATP) was added to wells. After incubating at room temperature for 30 min, the reaction was terminated by adding 50 μl of 20% TCA solution. The reaction solution was incubated at 4° C. for 30 min and an acid-insoluble fraction was transferred onto a GF/C filter (Packard) with Cell Harvester (Packard), and washed with 250 mM phosphoric acid. After drying at 45° C. for 60 min., 40 μL of Microscint 0 (Packard) was added and the radioactivity was measured with TopCount (Packard). The concentrations (IC50 value) of the test compounds necessary for 50% inhibition of kinase activity were calculated by PRISM 3.0 (Graphpad Software).
The enzyme activities of selected compounds of the present invention against ASK1 were determined using the assay disclosed in Example A and B. The resulted pIC50 values are reported in Table 1.

First: CC(C)(O)c1ccc(C(=O)Nc2cc(NC3CC3)n3nccc3n2)cc1 [Compound 88, N-(7-(cyclopropylamino)pyrazolo[1,5-a]pyrimidin-5-yl)-4-(2-hydroxypropan-2-yl)benzamide]
Second: CC(C)(C)c1ccc(C(=O)Nc2cc(NC3CC3)n3nccc3n2)cc1 [Compound 128, 4-tert-butyl-N-[7-(cyclopropylamino)pyrazolo[1,5-a]pyrimidin-5-yl]benzamide]
The IC50 of the first is higher: 100 to 1000 nM for the first, < 100 nM for the second.

First: CC(C)(O)c1ccc(C(=O)Nc2cc(N3CCc4nc[nH]c(=O)c4C3)n3nccc3n2)cc1 [Compound 89, 4-(2-hydroxypropan-2-yl)-N-(7-(4-oxo-3,4,7,8-tetrahydropyrido[4,3-d]pyrimidin-6(5H)-yl)pyrazolo[1,5-a]pyrimidin-5-yl)benzamide]
Second: CC(C)(O)c1ccc(C(=O)Nc2cc(N3CCNC(=O)CC3)n3nccc3n2)cc1 [Compound 93, 4-(2-hydroxypropan-2-yl)-N-(7-(5-oxo-1,4-diazepan-1-yl)pyrazolo[1,5-a]pyrimidin-5-yl)benzamide]
The IC50 of the first is lower: < 100 nM for the first, 100 to 1000 nM for the second.

Compared with CC(C)(O)c1ccc(C(=O)Nc2cc(N3CCN(S(C)(=O)=O)CC3)n3nccc3n2)cc1 [Compound 90, 4-(2-hydroxypropan-2-yl)-N-(7-(4-(methylsulfonyl)piperazin-1-yl)pyrazolo[1,5-a]pyrimidin-5-yl)benzamide], CC(C)(O)c1ccc(C(=O)Nc2cc(N3CCn4cnnc4C3)n3nccc3n2)cc1 [Compound 91, N-(7-(5,6-dihydro-[1,2,4]triazolo[4,3-a]pyrazin-7(8H)-yl)pyrazolo[1,5-a]pyrimidin-5-yl)-4-(2-hydroxypropan-2-yl)benzamide] is higher in IC50: 100 to 1000 nM for the first, > 1000 nM for the second.

Compared with CC(C)(O)c1ccc(C(=O)Nc2cc(N3CCC[C@H]3C(N)=O)n3nccc3n2)cc1 [Compound 92, (S)-1-(5-(4-(2-hydroxypropan-2-yl)benzamido)pyrazolo[1,5-a]pyrimidin-7-yl)pyrrolidine-2-carboxamide], CC(C)(C)c1ccc(C(=O)Nc2cc(N3CCCC(C(N)=O)C3)n3nccc3n2)cc1 (stereo not shown) [Compound 104, 1-(5-(4-tert-butylbenzamido)pyrazolo[1,5-a]pyrimidin-7-yl)piperidine-3-carboxamide] is lower in IC50: > 1000 nM for the first, < 100 nM for the second.

Cc1cc2nc(NC(=O)c3ccc(C(C)(C)CO)cc3)cc(N3CCC[C@H]3CO)n2n1 [Compound 95, (S)-4-(1-hydroxy-2-methylpropan-2-yl)-N-(7-(2-(hydroxymethyl)pyrrolidin-1-yl)-2-methylpyrazolo[1,5-a]pyrimidin-5-yl)benzamide] and Cc1cc2nc(NC(=O)c3ccc(C(C)(C)CO)cc3)cc(N3CC(O)C3)n2n1 [Compound 97, 4-(1-hydroxy-2-methylpropan-2-yl)-N-(7-(3-hydroxyazetidin-1-yl)-2-methylpyrazolo[1,5-a]pyrimidin-5-yl)benzamide] fall in the same range of IC50: 100 to 1000 nM for the first, 100 to 1000 nM for the second.

CC(C)(C)c1ccc(C(=O)Nc2cc(N3CCCCC3CCO)n3nccc3n2)cc1 (stereo not shown) [Compound 105, 4-tert-butyl-N-(7-(2-(2-hydroxyethyl)piperidin-1-yl)pyrazolo[1,5-a]pyrimidin-5-yl)benzamide] and CC(C)(C)c1ccc(C(=O)Nc2cc(N3CCCC(O)C3)n3nccc3n2)cc1 (stereo not shown) [Compound 113, 4-tert-butyl-N-(7-(3-hydroxypiperidin-1-yl)pyrazolo[1,5-a]pyrimidin-5-yl)benzamide] cannot be ordered by IC50: < 100 nM for the first, < 100 nM for the second.

CC(C)(C)c1ccc(C(=O)Nc2cc(N3CCC(O)CC3)n3nccc3n2)cc1 [Compound 112, 4-tert-butyl-N-(7-(4-hydroxypiperidin-1-yl)pyrazolo[1,5-a]pyrimidin-5-yl)benzamide] and CN(C)c1cc(NC(=O)c2ccc(C(C)(C)C)cc2)nc2ccnn12 [Compound 125, 4-tert-butyl-N-(7-(dimethylamino)pyrazolo[1,5-a]pyrimidin-5-yl)benzamide] cannot be ordered by IC50: < 100 nM for the first, < 100 nM for the second.

First: Cc1cc2nc(NC(=O)c3ccc(C(C)(C)CO)cc3)cc(N(C)CCc3ccccc3)n2n1 [Compound 127, 4-(1-hydroxy-2-methylpropan-2-yl)-N-(2-methyl-7-(methyl(phenethyl)amino)pyrazolo[1,5-a]pyrimidin-5-yl)benzamide]
Second: Cc1cc2nc(NC(=O)c3ccc(C(C)(C)O)cc3)cc(-c3ccccc3)n2n1 [Compound 202, 4-(2-hydroxypropan-2-yl)-N-(2-methyl-7-phenylpyrazolo[1,5-a]pyrimidin-5-yl)benzamide]
The IC50 of the first is higher: > 1000 nM for the first, < 100 nM for the second. The second is the more potent here.

Cc1cc2nc(N)cc(-c3cccc(CO)c3)n2n1 [Compound 173, (3-(5-amino-2-methylpyrazolo[1,5-a]pyrimidin-7-yl)phenyl)methanol] and Nc1cc(-c2cccc(CO)c2)n2nccc2n1 [Compound 178, (3-(5-aminopyrazolo[1,5-a]pyrimidin-7-yl)phenyl)methanol] cannot be ordered by IC50: > 1000 nM for the first, > 1000 nM for the second.

Cc1ccc(-c2cc(N)nc3ccnn23)cc1 [Compound 174, 7-p-tolylpyrazolo[1,5-a]pyrimidin-5-amine] and Nc1cc(-c2cccs2)n2nccc2n1 [Compound 175, 7-(thiophen-2-yl) pyrazolo[1,5-a]pyrimidin-5-amine] cannot be ordered by IC50: > 1000 nM for the first, > 1000 nM for the second.

First: Cc1cc2nc(NC(=O)c3ccc(C(C)(C)O)cc3)cc(N3CC[C@@H](O)C3)n2n1 [Compound 203, (R)-4-(2-hydroxypropan-2-yl)-N-(7-(3-hydroxypyrrolidin-1-yl)-2-methylpyrazolo[1,5-a]pyrimidin-5-yl)benzamide]
Second: Cc1cc2nc(NC(=O)c3ccc(C(C)(C)O)nc3)cc(-c3ccccc3)n2n1 [Compound 315, 6-(2-hydroxypropan-2-yl)-N-(2-methyl-7-phenylpyrazolo[1,5-a]pyrimidin-5-yl)nicotinamide]
The IC50 of the first is lower: < 100 nM for the first, 100 to 1000 nM for the second.

COc1ccc(-c2cc(NC(=O)c3ccc(C(C)(C)O)nc3)nc3cc(C)nn23)cc1 [Compound 338, 6-(2-hydroxypropan-2-yl)-N-(7-(4-methoxyphenyl)-2-methylpyrazolo[1,5-a]pyrimidin-5-yl)nicotinamide, trifluoroacetate salt] and Cc1cc2nc(NC(=O)[C@@H]3C[C@H]3c3ccccc3)cc(-c3ccccc3)n2n1 [Compound 347, (1R,2R)—N-(2-Methyl-7-phenylpyrazolo[1,5-a]pyrimidin-5-yl)-2-phenylcyclopropanecarboxamide] cannot be ordered by IC50: < 100 nM for the first, < 100 nM for the second.

In the case of CC(=O)NC1CCN(c2cc(NC(=O)[C@@H]3C[C@H]3c3ccccc3)nc3cc(C)nn23)CC1 [Compound 356, (1R,2R)—N-(7-(4-acetamidopiperidin-1-yl)-2-methylpyrazolo[1,5-a]pyrimidin-5-yl)-2-phenylcyclopropanecarboxamide], the IC50 is reported as < 100 nM.

Reference: patent US8921358B2, “Apoptosis signal-regulating kinase 1 inhibitors” (Takeda Pharmaceutical Company Limited, priority 2008, dated 2014)
